In patent USRE29337E, “Dicarboxylic acid soaps” (priority 1976, dated 1977):

Experiments:
[1] = Solubilities of various fatty acid soaps in water (Example 1); type: physicochemical
Protocol: Likewise, just as the type of fatty acid used influences soap properties, so does the choice of neutralizing agent. Therefore, various available inorganic alkalis were also compared.
The procedure for making the fatty acid soaps was to dissolve the inorganic alkali in the prescribed amount of water, heating to 150° F. The fatty acid was slowly added to the alkali solution and agitated for a few minutes.

[2] = potassium soaps; cited from earlier work
[3] = Liquid soap formulations (Example 8); type: physicochemical; settings: for pH of formulation: liquid soap formulations, excess base kept very low; for compatibility of pine oil with soap formulation: pine oil at 3% addition; for state of liquid soap: sodium hydroxide substituted for potassium hydroxide
Protocol: The formulation used was 12% coconut fatty acids, 3% soya or tall oil fatty acid, 4.4% KOH, 1% KCL, 80% water and a perfume as desired. In all of the soaps pine oil was added as the perfume at 3% addition.
The pine oil was compatible with the C21 dicarboxylic acid soap formulation. Of course, with C21 dicarboxylic acid soap much more concentrated, fluid soaps were prepared.
To further test the advantages of C21 dicarboxylic acid soap in liquid soaps, sodium hydroxide was substituted for the potassium hydroxide in each of the formulations mentioned above. […] In all of these formulations the excess base was kept at a very low level so that the pH's were about 9 for the C21 dicarboxylic acid and coconut fatty acid systems and about 11 for the oleic acid systems.

[4] = Viscosity vs percentage real soap, Brookfield viscometer (Example 4, FIGURE); type: physicochemical
Text: A property of the soaps which points up this solubility advantage of C21 dicarboxylic acid soap and which is also important for C21 dicarboxylic acid utility is the viscosity of the soap. […] The solubility of the various soaps may be illustrated by the viscosity of the soaps which is shown in the accompanying figure. […] The coconut fatty acid potassium soap is somewhat poorer than the C21 dicarboxylic acid soap since its viscosity goes above twenty centipoises at 30% real soap.
This example illustrates a comparison of viscosity changes with potassium solids. Liquid soaps of fatty acids must be fairly fluid for ease in dispensing and using them. Therefore, a measure of the change in viscosity of a soap solution as percentage soap present increases is an easy method for determining the concentration of soap that can be used. The curves in the accompanying FIGURE show this relationship. A Brookfield viscometer was used to determine these curves at 25° C. […] The fact that 50% oleic acid/50% coconut soap is required to obtain a viscosity of 20 cps. at 30% real soap; whereas only 25% C21 dicarboxylic acid soap/75% tall oil fatty acid is needed to reach the same viscosity level is typical of the significance of the C21 dicarboxylic acid soaps.

[5] = Shampoo formulations, soap content (Example 9); type: physicochemical; settings: 99% solids
Text: A product similar to the liquid soaps in composition is shampoo. Basically, shampoos are simply perfumed soap solutions which need to lather easily and which have a fairly high soap content. Consequently, most shampoos consist from 50% to 100% of the solids as coconut fatty acid soaps. With such a formulation a viscous potassium soap of about 35% real soap (solids) can be prepared. If the triethanolamine soap is used, a 40% real soap may be formulated. As is obvious from the earlier discussion, C21 dicarboxylic acid soap would allow for greater flexibility in the amount of soap present in the shampoo and also allow for the utility of a lower priced cation, sodium.
An area closely related to the liquid soaps is shampoos. The formulations are similar but, since profuse sudsing is desired in shampoos and since low viscosity is not critical, the real soap content is more than twice as high. To get 35% soap in a formulation, coconut fatty acids or a blend of 50% coconut-50% oleic must be used. A 40% soap shampoo can be prepared using triethanolamine rather than potassium hydroxide to form the soap. […] C21 dicarboxylic acid has a major economic advantage in this application since sodium hydroxide could be used instead of potassium hydroxide.

[6] = one-half of the carboxyl groups as carboxylate anions
Text: Since each molecule of C21 dicarboxylic acid has two carboxyl groups of varying acidity it is possible to convert the most acidic of these to the soap and the molecule becomes water-soluble leaving a free acid group on each molecule. […] A soap solution of C21 dicarboxylic acid can be prepared at any pH above 6.5, so in the case of amine soaps one can prepare the soap in such a way as to have free acid groups rather than excess amine, so there is no amine odor.
Of course, these soaps all have a pH of about 6.7 and have one free carboxylic acid group in solution.
Since the C21 dicarboxylic acid has two acid groups of different strengths, it is very easy to prepare the mono or half soap of the diacid.

[7] = Fluidity and gelling of soaps (general description); type: physicochemical; settings: potassium soap
Text: The C21 dicarboxylic acid soaps are made by neutralizing the C21 dicarboxylic acid. The neutralizing agent used is based on the solubility characteristics desired in the soap and economic considerations. The neutralizing agents contemplated include those of the following cations, sodium, potassium, lithium and ammonium. These cations may be obtained from such inorganic alkalis as caustic soda, caustic potash, and soda ash. Another cation which may be used is the ammonium cation. Organic amines may also be used, specifically amines such as triethylamine, monoethylamine, diethylamine, and alkanolamines, such as ethanolamine, triethanolamine and diethanolamine. The soaps made from the above listed neutralizing agents are all liquid at temperatures as low as 30° F.
For example, the potassium soap of oleic acid is a viscous fluid at about 18% solids and gels at 19%-20% solids. However, the potassium soap of oleic acid blended with 40% C21 dicarboxylic acid potassium soap is very fluid at 30 to 40% solids. This general characteristic of increased solubility is advantageous to all soap users for economy in shipping and handling. It also allows for cuts in production costs in applications where water is removed from the final product, since less water is added with the soap when a C21 dicarboxylic acid soap is used. […]

[8] = type: physicochemical
Text: is often desirable when making liquid soaps, as well as toilet soaps, having tailored properties, to blend together various fatty acids to achieve desirable characteristics and lessen the undesirable ones.

[9] = Amine soaps: dilution with water and gelling (Example 5); type: physicochemical; settings: triethylamine soap; diluted slowly with water, C21 soap down to 25% solids
Protocol: The C21 dicarboxylic acid-amine soaps were also prepared using diethanolamine and monoethanol amine.

[10] = cation K, 40 percent solids in water

Compound: CCCCCCCCCCCC(=O)O [Lauric acid (C12), Lauric acid]
- Characteristics ([1]; cation K, 33 percent solids in water): Viscous solution
- Characteristics ([1]; cation K, 36 percent solids in water): Gel
- highest solids soaps that are still fluid at room temperature [2]: 35%

Compound: 5 carboxy-4-hexyl-2-cyclohexene-1-octanoic acid and 6 carboxy-4-hexyl-2 cyclohexene-1-octanoic acid [C21 dicarboxylic acid]
- water solubility compared with soaps of conventional fatty acids [1]: water soluble at higher solids content
- Characteristics ([1]; cation K, 20 percent solids in water): Solution
- Characteristics ([1]; cation K, 80 percent solids in water): Viscous solution
- Characteristics ([1]; cation Li, 10 percent solids in water): Solution
- Characteristics ([1]; cation Na, 20 percent solids in water): Solution
- Characteristics ([1]; cation Na, 65 percent solids in water): Viscous solution
- pH of formulation [3]: about 9
- compatibility of pine oil with soap formulation ([3]; listed as C21 dicarboxylic acid soap): compatible
- compatibility of pine oil with soap formulation ([3]; listed as C21 dicarboxylic acid soaps): very compatible
- precipitation ([3]; sodium hydroxide formulation, storage): no signs of precipitating after three months
- state of liquid soap [3]: very fluid
- viscosity of blends with oleic acid soap and coconut soap [4]: low viscosity blends
- gelling [5]: does not gel
- water-solubility of partly neutralized acid [6]: water-soluble

Compound: CCCCCCCCC(=O)O [Nonanoic acid (G9), Nonanoic acid]
- Characteristics ([1]; cation K, 35 percent solids in water): Viscous solution
- Characteristics [1, 10]: Gel

Compound: CCCCCCCC/C=C\CCCCCCCC(=O)O [potassium soap of oleic acid]
- percent solids at which soap is a viscous fluid [7]: about 18 % solids
- percentage real soap at which viscosity exceeds twenty centipoises ([4]; potassium soap solution, 25° C.): 16 % real soap

Compound: CCCCCCCC/C=C\CCCCCCCC(=O)O [Vegetable derived oleic acid (C18), oleic acid]
- Characteristics at 25° C. [8]: Gel

Compound: CCCCCCCCCC(=O)O [Decanoic acid (C10), Decanoic acid]
- highest solids soaps that are still fluid at room temperature [2]: 40%

Compound: CCCCCCCC/C=C\CCCCCCCC(=O)O [oleic acid]
- gelling on dilution with water [9]: a gel formed immediately upon the addition of water
- pH of formulation [3]: about 11
- fluidity of liquid soap ([3]; potassium hydroxide formulation, in place of coconut fatty acids): very viscous soap of questionable utility
- state of liquid soap [3]: gels
- highest solids soaps that are still fluid at room temperature [2]: 20%

Compound: CCCCCCCC(=O)O [Octanoic acid (C8), Octanoic acid]
- Characteristics [1, 10]: Viscous solution
- Characteristics ([1]; cation K, 45 percent solids in water): Gel
- highest solids soaps that are still fluid at room temperature [2]: 45%
